# In publication PMC8174188 (Neuron, 2021):
# T1: dSARM1^ARM (Drosophila SARM1 ARM domain) (Drosophila melanogaster, UniProt Q6IDD9)
# T1 sequence (Q6IDD9 307-678): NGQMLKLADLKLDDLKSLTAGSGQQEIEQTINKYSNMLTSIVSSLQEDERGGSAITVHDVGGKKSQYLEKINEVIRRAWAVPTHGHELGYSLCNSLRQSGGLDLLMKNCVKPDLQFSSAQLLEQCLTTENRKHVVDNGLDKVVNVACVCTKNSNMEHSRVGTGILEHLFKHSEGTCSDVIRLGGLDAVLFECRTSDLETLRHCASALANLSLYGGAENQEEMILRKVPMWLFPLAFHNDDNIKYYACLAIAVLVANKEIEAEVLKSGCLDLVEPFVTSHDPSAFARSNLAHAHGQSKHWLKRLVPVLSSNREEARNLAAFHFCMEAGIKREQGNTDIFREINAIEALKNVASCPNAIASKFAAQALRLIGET
# B1: human SARM1 lacking the mitochondrial localisation signal (residues 28-724) (enzyme, UniProt Q6SZW1-1 28-724, looked up)
# chain: LAVPGPDGGGGTGPWWAAGGRGPREVSPGAGTEVQDALERALPELQQALSALKQAGGARAVGAGLAEVFQLVEEAWLLPAVGREVAQGLCDAIRLDGGLDLLLRLLQAPELETRVQAARLLEQILVAENRDRVARIGLGVILNLAKEREPVELARSVAGILEHMFKHSEETCQRLVAAGGLDAVLYWCRRTDPALLRHCALALGNCALHGGQAVQRRMVEKRAAEWLFPLAFSKEDELLRLHACLAVAVLATNKEVEREVERSGTLALVEPLVASLDPGRFARCLVDASDTSQGRGPDDLQRLVPLLDSNRLEAQCIGAFYLCAEAAIKSLQGKTKVFSDIGAIQSLKRLVSYSTNGTKSALAKRALRLLGEEVPRPILPSVPSWKEAEVQTWLQQIGFSKYCESFREQQVDGDLLLRLTEEELQTDLGMKSGITRKRFFRELTELKTFANYSTCDRSNLADWLGSLDPRFRQYTYGLVSCGLDRSLLHRVSEQQLLEDCGIHLGVHRARILTAAREMLHSPLPCTGGKPSGDTPDVFISYRRNSGSQLASLLKVHLQLHGFSVFIDVEKLEAGKFEDKLIQSVMGARNFVLVLSPGALDKCMQDHDCKDWVHKEIVTALSCGKNIVPIIDGFEWPEPQVLPEDMQAVLTFNGIKWSHEYQEATIEKIIRFLQGRSSRDSSAGSDTSLEGAAPMGPT
# Columns and labels:
# [1] = biological target: T1, dSARM1^ARM (Drosophila SARM1 ARM domain); test: ITC; type: binding
# [2] = biological target: dSARM1^ARM (Drosophila SARM1 ARM domain) (Drosophila melanogaster, UniProt Q6IDD9, R437A); test: ITC; type: binding
# Sequence of dSARM1^ARM (Drosophila SARM1 ARM domain) (Drosophila melanogaster, UniProt Q6IDD9, R437A) (Q6IDD9 307-678 R437A): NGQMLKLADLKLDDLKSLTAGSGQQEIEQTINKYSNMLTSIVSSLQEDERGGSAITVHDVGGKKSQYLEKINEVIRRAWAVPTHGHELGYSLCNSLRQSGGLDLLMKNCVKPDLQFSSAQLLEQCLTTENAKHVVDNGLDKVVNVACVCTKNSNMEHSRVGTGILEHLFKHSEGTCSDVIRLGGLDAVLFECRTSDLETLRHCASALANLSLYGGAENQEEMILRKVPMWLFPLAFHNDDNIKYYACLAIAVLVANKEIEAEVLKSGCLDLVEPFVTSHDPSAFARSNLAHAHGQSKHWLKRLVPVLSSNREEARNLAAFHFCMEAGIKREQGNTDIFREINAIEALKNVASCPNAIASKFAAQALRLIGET
# [3] = biological target: the molecule itself; test: cryo-EM structure
molecule,measurement,setting,value
NC(=O)c1ccc[n+]([C@@H]2O[C@H](COP(=O)([O-])OP(=O)(O)OC[C@H]3O[C@@H](n4cnc5c(N)ncnc54)[C@H](O)[C@@H]3O)[C@@H](O)[C@H]2O)c1 [NAD^+],Kd,[1],54.2 ± 6.4 µM
NC(=O)c1ccc[n+]([C@@H]2O[C@H](COP(=O)([O-])O)[C@@H](O)[C@H]2O)c1 [NMN],Kd,[2],12.45 ± 0.03 µM
B1,stoichiometry N,[3],8
